Legend:
Type in all cases: cell-based, mouse
[1] = test system: β-galactosidase in CMV-LacZ C2C12 myoblasts; assay: CMV-LacZ secondary screen in C2C12 myoblasts (β-Gal stabilizing assay); details: for CMV-LACZ in Myoblasts (β-galactosidase activity relative to DMSO): CMV-LacZ C2C12 myoblasts; for CMV-LACZ in Myoblasts, value relative to DMSO: SU9516 analogs, C2C12 CMV-LacZ, N=2
Method in brief: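 Dose-response runs at 0.5–40 μM (0.5, 1, 5, 10, 20, 40 μM; N=2 per point) used a clonal C2C12 line carrying CMV-LacZ. Cells were assayed as myoblasts or as differentiated myotubes, and β-galactosidase levels were read with the FDG fluorogenic substrate.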

[2] = test system: α7 integrin (LacZ reporter in α7βgal+/− myoblasts); assay: Myoblast α7+/LacZ integrin FDG assay (Burkin assay in myoblasts, 96-well); details: 96-well; for Burkin Assay in Myoblasts, signal relative to DMSO: α7+/LacZ myoblasts; for Burkin Assay in Myoblasts, value relative to DMSO: SU9516 analogs, N=3-6
[3] = test system: α7 integrin (LacZ reporter in α7+/LacZ myotubes); assay: Myotube α7 integrin FDG assay (Burkin assay in myotubes, 96-well); details: for Burkin Assay in Myotubes, value relative to DMSO: SU9516 analogs, 96-well, N=3-6
[4] = test system: β-galactosidase in CMV-LacZ C2C12 myotubes; assay: CMV-LacZ secondary screen in C2C12 myotubes (β-Gal stabilizing assay); details: for CMV-LACZ in Myotubes, signal relative to DMSO: C2C12 CMV-LacZ myotubes, fold relative to DMSO; for CMV-LACZ in Myotubes, value relative to DMSO: SU9516 analogs, C2C12 CMV-LacZ, N=2
Method in brief: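 β-Gal level was the read-out, measured in a clonal C2C12 line expressing LacZ from a CMV promoter. Dose-response curves used six concentrations, 0.5 μM up to 40 μM, with duplicate points.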

Compound: O=C(Nc1ccccc1OC(=O)c1ccc(Cl)cc1)c1ccc(Cl)cc1 [MLS000573208-01]
- CMV-LACZ in Myoblasts (β-galactosidase activity relative to DMSO) ([1]; 0.5 uM): 1.0197
- CMV-LACZ in Myoblasts (β-galactosidase activity relative to DMSO) ([1]; 1 uM): 0.9594
- CMV-LACZ in Myoblasts (β-galactosidase activity relative to DMSO) ([1]; 5 uM): 1.1030
- CMV-LACZ in Myoblasts (β-galactosidase activity relative to DMSO) ([1]; 10 uM): 0.8678
- CMV-LACZ in Myoblasts (β-galactosidase activity relative to DMSO) ([1]; 20 uM): 0.6626
- CMV-LACZ in Myoblasts (β-galactosidase activity relative to DMSO) ([1]; 40 uM): 0.9289
- Burkin Assay in Myoblasts, signal relative to DMSO ([2]; 0.5 uM): 1.031
- Burkin Assay in Myoblasts, signal relative to DMSO ([2]; 1 uM): 1.015
- Burkin Assay in Myoblasts, signal relative to DMSO ([2]; 5 uM): 0.9523
- Burkin Assay in Myoblasts, signal relative to DMSO ([2]; 10 uM): 0.8121
- Burkin Assay in Myoblasts, signal relative to DMSO ([2]; 20 uM): 1.632
- Burkin Assay in Myoblasts, signal relative to DMSO ([2]; 40 uM): 0.6235
- Burkin Assay in Myotubes, α7 integrin LacZ reporter signal relative to DMSO ([3]; 0.5 uM): 0.9453
- Burkin Assay in Myotubes, α7 integrin LacZ reporter signal relative to DMSO ([3]; 1 uM): 1.007
- Burkin Assay in Myotubes, α7 integrin LacZ reporter signal relative to DMSO ([3]; 5 uM): 0.98
- Burkin Assay in Myotubes, α7 integrin LacZ reporter signal relative to DMSO ([3]; 10 uM): 1.045
- Burkin Assay in Myotubes, α7 integrin LacZ reporter signal relative to DMSO ([3]; 20 uM): 0.8239
- Burkin Assay in Myotubes, α7 integrin LacZ reporter signal relative to DMSO ([3]; 40 uM): 0.5966
- CMV-LACZ in Myotubes, signal relative to DMSO ([4]; 0.5 uM): 0.9547
- CMV-LACZ in Myotubes, signal relative to DMSO ([4]; 1 uM): 1.3021
- CMV-LACZ in Myotubes, signal relative to DMSO ([4]; 5 uM): 1.1765
- CMV-LACZ in Myotubes, signal relative to DMSO ([4]; 10 uM): 0.8913
- CMV-LACZ in Myotubes, signal relative to DMSO ([4]; 20 uM): 0.9633
- CMV-LACZ in Myotubes, signal relative to DMSO ([4]; 40 uM): 0.9478

Compound: O=C1Nc2ccccc2/C1=C/c1ccccc1Cl [MLS001202425-01]
- CMV-LACZ in Myoblasts, value relative to DMSO ([1]; 0.5 uM): 1.0625
- CMV-LACZ in Myoblasts, value relative to DMSO ([1]; 1 uM): 1.0919
- CMV-LACZ in Myoblasts, value relative to DMSO ([1]; 5 uM): 0.8675
- CMV-LACZ in Myoblasts, value relative to DMSO ([1]; 10 uM): 1.1386
- CMV-LACZ in Myoblasts, value relative to DMSO ([1]; 20 uM): 0.9081
- CMV-LACZ in Myoblasts, value relative to DMSO ([1]; 40 uM): 0.6233
- Burkin Assay in Myoblasts, value relative to DMSO ([2]; 0.5 uM): 1.2214
- Burkin Assay in Myoblasts, value relative to DMSO ([2]; 1 uM): 1.219
- Burkin Assay in Myoblasts, value relative to DMSO ([2]; 5 uM): 0.9673
- Burkin Assay in Myoblasts, value relative to DMSO ([2]; 10 uM): 0.8645
- Burkin Assay in Myoblasts, value relative to DMSO ([2]; 20 uM): 0.7465
- Burkin Assay in Myoblasts, value relative to DMSO ([2]; 40 uM): 0.3445
- Burkin Assay in Myotubes, value relative to DMSO ([3]; 0.5 uM): 1.148
- Burkin Assay in Myotubes, value relative to DMSO ([3]; 1 uM): 1.205
- Burkin Assay in Myotubes, value relative to DMSO ([3]; 5 uM): 0.9499
- Burkin Assay in Myotubes, value relative to DMSO ([3]; 10 uM): 0.8033
- Burkin Assay in Myotubes, value relative to DMSO ([3]; 20 uM): 0.5178
- Burkin Assay in Myotubes, value relative to DMSO ([3]; 40 uM): 0.354
- CMV-LACZ in Myotubes, value relative to DMSO ([4]; 0.5 uM): 0.8793
- CMV-LACZ in Myotubes, value relative to DMSO ([4]; 1 uM): 1.0185
- CMV-LACZ in Myotubes, value relative to DMSO ([4]; 5 uM): 1.1496
- CMV-LACZ in Myotubes, value relative to DMSO ([4]; 10 uM): 1.0423
- CMV-LACZ in Myotubes, value relative to DMSO ([4]; 20 uM): 0.9918
- CMV-LACZ in Myotubes, value relative to DMSO ([4]; 40 uM): 0.9976

— patent US9980943B2, “Methods of treating muscular dystrophy” (BOARD OF REGENTS OF THE NEVADA SYSTEM OF HIGHER EDUCATION, …, priority 2013, dated 2018)
